Entries after “also recorded” stand apart in the source; their conditions may differ. Structures can show the parent of a compound that is named as a salt.
What was measured:
[1] = Moisture sorption profile over relative humidity; type: physicochemical; conditions: over a wide range of relative humidity; compared with trihydrochloride salt/crystal (Form I)
[2] = Incorporation of organic solvents into the crystal lattice; type: physicochemical; conditions: compared with trihydrochloride salt/crystal (Form I)
[3] = Thermodynamic stability of salt and crystal forms; conditions: for thermodynamic stability relative to trihydrochloride (Form I): compared with trihydrochloride salt/crystal (Form I), hydrochloride

| most stable form ([3]; aqueous and acidic media) | SMILES | moisture sorption (water sorbed) [1] | incorporation of organic solvents [2] | thermodynamic stability relative to trihydrochloride (Form I) [3] | most stable form ([3]; organic solutions and solid state at ambient temperature/relative humidity) | incorporation of organic solvents ([2]; hydrochloride) |
| --- | --- | --- | --- | --- | --- | --- |
|  | Cl.Cl.Cl.Cl.Cl.O[C@@H](COc1cccc2ncccc12)CN1CCN(C2c3ccccc3C3C(c4ccccc42)C3(F)F)CC1.O[C@@H](COc1cccc2ncccc12)CN1CCN(C2c3ccccc3C3C(c4ccccc42)C3(F)F)CC1 (stereo partly drawn) [2.5 salt, (2R)-anti-5-{3-[4-(10,11-difluoromethanodibenzosuber-5-yl)piperazin-1-yl]-2-hydroxypropoxy}quinoline 2.5 hydrochloride] | sorb less water overall over a wide range of relative humidity | do not incorporate organic solvents as readily as the trihydrochloride salt and crystal |  |  |  |
|  | O[C@@H](COc1cccc2ncccc12)CN1CCN([C@@H]2c3ccccc3[C@@H]3[C@H](c4ccccc42)C3(F)F)CC1 [Form II, (2R)-anti-5-{3-[4-(10,11-difluoromethanodibenzosuber-5-yl)piperazin-1-yl]-2-hydroxypropoxy}quinoline 2.5 hydrochloride] | sorb less water overall over a wide range of relative humidity |  | thermodynamically more stable than Form I; also recorded: thermodynamically more stable than the trihydrochloride salt and crystal | most stable in organic solutions and in the solid state at ambient temperature/relative humidity | do not incorporate organic solvents as readily as Form I; also recorded: do not incorporate organic solvents as readily as the trihydrochloride salt and crystal |
| most stable in aqueous and acidic media | O[C@@H](COc1cccc2ncccc12)CN1CCN([C@@H]2c3ccccc3[C@@H]3[C@H](c4ccccc42)C3(F)F)CC1 [Form III, (2R)-anti-5-{3-[4-(10,11-difluoromethanodibenzosuber-5-yl)piperazin-1-yl]-2-hydroxypropoxy}quinoline 2.5 hydrochloride] | sorb less water overall over a wide range of relative humidity |  | thermodynamically more stable than Form I; also recorded: thermodynamically more stable than the trihydrochloride salt and crystal |  | do not incorporate organic solvents as readily as Form I; also recorded: do not incorporate organic solvents as readily as the trihydrochloride salt and crystal |

— patent US7582762B2, “Salt and crystalline forms of (2R)-anti-5-{3-[4-(10,11-difluoromethanodibenzosuber-5-YL)piperazin-1-YL]-2-hydroxypropoxy}quinoline” (Eli Lilly and Company, priority 2001, dated 2009)
